Reference: PubChem BioAssay (NCI)
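Assay format: 96-well plates, 48-hour exposure. The concentration for 50% growth inhibition is given as GI50. At the TGI there is no net growth.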

Tests used:
Assay in all cases: growth of human tumour cells (NCI), 48 h
[1] = tested on: NCI-H23 lung
[2] = tested on: SF-268 CNS
[3] = tested on: SK-OV-3 ovarian
[4] = tested on: SK-MEL-5 melanoma
[5] = tested on: NCI/ADR-RES ovarian
[6] = tested on: HS 578T breast
[7] = tested on: HT29 colon
[8] = tested on: SK-MEL-28 melanoma
[9] = tested on: DU-145 prostate
[10] = tested on: U251 CNS
[11] = tested on: M14 melanoma
[12] = tested on: NCI-H460 lung
[13] = tested on: KM12 colon
[14] = tested on: MOLT-4 leukemia
[15] = tested on: T-47D breast
[16] = tested on: OVCAR-4 ovarian
[17] = tested on: COLO 205 colon
[18] = tested on: MALME-3M melanoma
[19] = tested on: SR leukemia
[20] = tested on: CCRF-CEM leukemia
[21] = tested on: ACHN renal
[22] = tested on: PC-3 prostate
[23] = tested on: OVCAR-8 ovarian
[24] = tested on: SN12C renal
[25] = tested on: SK-MEL-2 melanoma
[26] = tested on: SNB-19 CNS
[27] = tested on: MCF7 breast
[28] = tested on: SF-539 CNS
[29] = tested on: 786-0 renal
[30] = tested on: SW-620 colon
[31] = tested on: TK-10 renal
[32] = tested on: SNB-75 CNS
[33] = tested on: SF-295 CNS
[34] = tested on: RXF 393 renal
[35] = tested on: HOP-92 NSCLC
[36] = tested on: LOX IMVI melanoma
[37] = tested on: CAKI-1 renal
[38] = tested on: K-562 leukemia
[39] = tested on: HCT-15 colon
[40] = tested on: RPMI-8226 leukemia
[41] = tested on: OVCAR-3 ovarian
[42] = tested on: OVCAR-5 ovarian
[43] = tested on: A549 NSCLC
[44] = tested on: NCI-H226 lung
[45] = tested on: HCT-116 colon
[46] = tested on: UACC-257 melanoma
[47] = tested on: HOP-62 NSCLC
[48] = tested on: MDA-MB-231 breast
[49] = tested on: UACC-62 melanoma
[50] = tested on: A498 renal
[51] = tested on: BT-549 breast
[52] = tested on: UO-31 renal
[53] = tested on: IGROV1 ovarian
[54] = tested on: NCI-H522 lung

SMILES: COc1ccc(-c2[nH]c3ccc(OC)cc3c2C=C(C#N)C#N)cc1
- GI50 [1]: 1.25 µM
- TGI [1]: > 100 µM
- GI50 [2]: 1.67 µM
- TGI [2]: > 100 µM
- GI50 [3]: 0.731 µM
- TGI [3]: > 100 µM
- GI50 [4]: 0.321 µM
- TGI [4]: > 100 µM
- GI50 [5]: 0.389 µM
- TGI [5]: > 100 µM
- GI50 [6]: 0.924 µM
- TGI [6]: > 100 µM
- GI50 [7]: 0.404 µM
- TGI [7]: > 100 µM
- GI50 [8]: 1.66 µM
- TGI [8]: > 100 µM
- GI50 [9]: 0.752 µM
- TGI [9]: > 100 µM
- GI50 [10]: 0.607 µM
- TGI [10]: > 100 µM
- GI50 [11]: 0.376 µM
- TGI [11]: > 100 µM
- GI50 [12]: 0.463 µM
- TGI [12]: > 100 µM
- GI50 [13]: 0.52 µM
- TGI [13]: > 100 µM
- TGI [14]: > 100 µM
- GI50 [15]: 2.57 µM
- TGI [15]: > 100 µM
- GI50 [16]: > 100 µM
- TGI [16]: > 100 µM
- GI50 [17]: 0.288 µM
- TGI [17]: 1.02 µM
- GI50 [18]: > 100 µM
- TGI [18]: > 100 µM
- GI50 [19]: 0.0188 µM
- TGI [19]: 0.116 µM
- GI50 [20]: > 100 µM
- TGI [20]: > 100 µM
- GI50 [21]: > 100 µM
- TGI [21]: > 100 µM
- GI50 [22]: 0.342 µM
- TGI [22]: > 100 µM
- GI50 [23]: > 100 µM
- TGI [23]: > 100 µM
- GI50 [24]: 15.9 µM
- TGI [24]: > 100 µM
- GI50 [25]: 5.85 µM
- TGI [25]: > 100 µM
- GI50 [26]: > 37 µM
- TGI [26]: > 100 µM
- GI50 [27]: 0.382 µM
- TGI [27]: > 100 µM
- GI50 [28]: 1.32 µM
- TGI [28]: > 100 µM
- GI50 [29]: 14.3 µM
- TGI [29]: > 100 µM
- GI50 [30]: 0.568 µM
- TGI [30]: > 100 µM
- GI50 [31]: > 100 µM
- TGI [31]: > 100 µM
- GI50 [32]: 0.551 µM
- TGI [32]: 97.7 µM
- GI50 [33]: 0.306 µM
- TGI [33]: > 100 µM
- GI50 [34]: 5.48 µM
- TGI [34]: > 100 µM
- GI50 [35]: > 47.9 µM
- TGI [35]: > 100 µM
- GI50 [36]: > 100 µM
- TGI [36]: > 100 µM
- TGI [37]: > 100 µM
- GI50 [38]: 0.343 µM
- TGI [38]: > 100 µM
- GI50 [39]: 0.766 µM
- TGI [39]: > 100 µM
- GI50 [40]: 2.5 µM
- TGI [40]: > 100 µM
- GI50 [41]: 0.364 µM
- TGI [41]: 1.9 µM
- GI50 [42]: > 100 µM
- TGI [42]: > 100 µM
- GI50 [43]: 3.78 µM
- TGI [43]: > 100 µM
- GI50 [44]: 1.45 µM
- TGI [44]: > 100 µM
- GI50 [45]: 0.477 µM
- TGI [45]: > 100 µM
- GI50 [46]: > 100 µM
- TGI [46]: > 100 µM
- GI50 [47]: 3.34 µM
- TGI [47]: > 100 µM
- GI50 [48]: 1.18 µM
- TGI [48]: > 100 µM
- GI50 [49]: 0.355 µM
- TGI [49]: > 100 µM
- GI50 [50]: 0.075 µM
- TGI [50]: 3.97 µM
- GI50 [51]: > 100 µM
- TGI [51]: > 100 µM
- GI50 [52]: > 100 µM
- TGI [52]: > 100 µM
- GI50 [53]: > 24 µM
- TGI [53]: > 100 µM
- GI50 [54]: > 100 µM
- TGI [54]: > 100 µM
